{
  "source": "paper PMC5669199",
  "about": "“CM352 Reduces Brain Damage and Improves Functional Recovery in a Rat Model of Intracerebral Hemorrhage” (Journal of the American Heart Association: Cardiovascular …, 2017)",
  "key": {"Plasma protein binding": {"assay": "Plasma protein binding", "format": "in vitro ADME", "settings": "rat, read-out: Plasma prot binding (% unbound)"}, "[1]": {"system": "tissue‐type plasminogen activator–induced fibrinolysis in human blood", "set-up": "method as in PMID 25686022", "settings": "read-out: effective concentration to delay lysis time by 50%; cited from earlier work"}, "interleukin‐6": {"system": "interleukin‐6", "assay": "Plasma interleukin‐6 ELISA after ICH", "format": "in vivo, rat", "settings": "1 mg/kg iv 1 hour after collagenase; 3 hours, P<0.05 vs control", "description": "(§1) Blood samples (0.5 mL) were drawn from the tail vein before surgery, immediately after surgery, and at 1 hour, 3 hours, 24 hours, and 14 days. Citrate or EDTA plasma was obtained by centrifugation, and samples were stored at −80°C. Enzyme‐linked immunosorbent assay was used to measure interleukin‐6 (IL‐6, ref. KRC0061, Life Technologies, Thermo Fisher Scientific, Waltham, MA), cellular fibronectin (ref. MBS007311, MyBioSource, San Diego, CA), and thrombin‐antithrombin complex (Enzygnost TAT, ref. OWMG15, Siemens Healthcare, Erlangen, Germany) in plasma, as biomarkers of inflammation, cellular damage, and hypercoagulability, respectively. The intra‐assay and interassay coefficients of variation for all molecular markers were <10%."}, "MMP‐12": {"molecular_target": "T1, MMP‐12 (Homo sapiens, UniProt P39900)", "T1 construct": "GenScript (contract testing)", "T1 sequence (P39900 106-470, species assumed)": "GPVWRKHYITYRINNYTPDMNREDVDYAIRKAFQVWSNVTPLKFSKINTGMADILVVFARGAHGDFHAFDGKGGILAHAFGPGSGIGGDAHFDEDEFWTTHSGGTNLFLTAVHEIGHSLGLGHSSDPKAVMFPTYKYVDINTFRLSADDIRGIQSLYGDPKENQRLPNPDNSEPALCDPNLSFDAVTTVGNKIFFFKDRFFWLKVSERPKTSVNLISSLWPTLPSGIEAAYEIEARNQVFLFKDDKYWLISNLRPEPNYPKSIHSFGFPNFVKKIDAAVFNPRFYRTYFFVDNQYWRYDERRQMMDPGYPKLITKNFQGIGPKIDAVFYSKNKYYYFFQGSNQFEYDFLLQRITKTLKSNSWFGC", "assay": "MMP enzyme activity assay", "format": "biochemical", "settings": "read-out: MMP Inhibitory Activity (IC50), MMP‐12", "description": "[…]. Protease stock solutions (10 mmol/L) were diluted with assay buffer to make final test solutions containing no more than 2.0% DMSO. The samples were dispensed into plates; substrate was added and read with PHERAstar PLUS (BMG Labtech, Ortenberg, Germany) plate reader."}, "[2]": {"system": "tissue‐type plasminogen activator–induced fibrinolysis in mouse whole blood", "assay": "Whole blood clot formation and lysis assay (ROTEM thromboelastometry), mouse blood", "format": "biochemical", "settings": "tPA‐induced fibrinolysis, read-out: effective concentration to delay lysis time by 50%", "description": "Citrated blood samples from (n=4) rats (Sprague Dawley) and (n=16) mice ([…], Harlan Iberica) were assayed with a ROTEM analyzer (Pentapharm GmbH, Munich, Germany) as previously described.20 In a prewarmed cuvette and holder we pipetted 1 μL tissue-type plasminogen activator (150 000 U/mL), 20 μL Start-tem reagent (Pentapharm GmbH), 20 μL In-tem reagent (Pentapharm GmbH), 3 μL DMSO (SIGMA) or test compounds in DMSO, and 300 μL prewarmed citrated blood. The cup holder containing the sample mixture was placed immediately on the appropriate channel. Measurements were recorded for 60 minutes to allow clot formation and lysis, and results are expressed as effective concentration to delay lysis time by 50%."}, "[3]": {"molecular_target": "bacterial collagenase type VII", "assay": "Collagenase activity assay (FALGPA substrate)", "format": "biochemical", "settings": "tested 10 nmol/L to 10 μmol/L; no significant effect", "description": "Enzymatic assay of collagenase was performed using FALGPA (Sigma‐Aldrich Corp, St. Louis, MO) as substrate, according to the manufacturer's recommendations. Briefly, proteolysis of 1 mmol/L FALGPA by 2 U/mL bacterial collagenase type VII (Sigma‐Aldrich Corp, St. Louis, MO) in reaction buffer (50 mmol/L Tricine; 10 mmol/L CaCl2; 400 mmol/L NaCl) was monitored spectrophotometrically (345 nm) for 5 minutes, in the presence of CM352, phenanthroline, or vehicle."}, "[4]": {"assay": "Prothrombin time in plasma after ICH", "format": "in vivo, rat", "settings": "percentage of the standard value, n=3", "description": "(§2) Prothrombin time (PT) and activated partial thromboplastin time (aPTT) were measured with STA‐Neoplastin R and PTT reagents (STA‐Compact, Stago, Barcelona, Spain). PT results were expressed as percentage of the standard value, and aPTT results were expressed in seconds."}, "cellular fibronectin": {"system": "cellular fibronectin", "assay": "Plasma cellular fibronectin ELISA after ICH", "format": "in vivo, rat", "settings": "1 mg/kg iv after ICH; data not shown", "description": "as §1"}, "[5]": {"assay": "Activated partial thromboplastin time in plasma after ICH", "format": "in vivo, rat", "settings": "n=3", "description": "as §2"}, "[6]": {"system": "rat model of collagenase‐induced ICH", "assay": "Bederson scale in ICH rat model", "format": "in vivo", "description": "On the other hand, neurological deficit was evaluated with the Bederson scale,24 ranging from 0 (asymptomatic) to 8 (severe deficit), which included the following items: spontaneous movement, spontaneous rotation, spontaneous flexion of the contralateral forelimb, edge detection, turn after tail suspension, reflection of protection. Behavioral studies were performed at baseline (before surgery) and at 24 hours and 14 days after ICH during the darkness cycle. An experienced investigator, blind to treatment and neuroimaging data, analyzed the behavioral tests."}, "[7]": {"system": "wide panel of metalloenzymes, including cathepsins, caspases, kalikreins, and neutrophil proteases", "set-up": "method as in PMID 25686022", "settings": "cited from earlier work"}, "[8]": {"system": "thrombin‐antithrombin complex", "assay": "Plasma thrombin‐antithrombin complex ELISA after ICH", "format": "in vivo, rat", "settings": "1 mg/kg iv after ICH; data not shown", "description": "as §1"}, "[9]": {"assay": "Pharmacokinetics of CM352 in rats after intravenous administration", "format": "in vivo", "settings": "rat, 1 mg/kg intravenous", "description": "CM352 solutions were prepared by dissolving the solid in saline. A drug dosage of 1 mg/kg was administered as a single intravenous injection in the femoral vein. Blood was collected into citrated tubes, and plasma was obtained by 2‐step centrifugation: first at 600 g for 10 minutes and then at 18 000 g for 2 minutes. Plasma samples were stored at −80°C until analysis. CM352 was measured in plasma samples using a Xevo‐TQ MS triple quadrupole mass spectrometer with an electrospray ionization source and an Acquity UPLC (Waters, Manchester, UK) as previously reported.20 Briefly, after chromatographic separation, the compound was detected using multiple reaction monitoring. Quantification was achieved by external calibration using matrix‐matched standards prepared by adding the appropriate volume of diluted solutions of the compound (in methanol/water 50:50, v:v) to aliquots of 50 μL blank plasma. Pharmacokinetic parameters were obtained by fitting the blood concentration‐time data to a bicompartmental model with the WinNonlin software (Pharsight, Mountain View, CA)."}},
  "data": [
    {"smiles": "CNC(=O)c1ccc(Oc2ccc(S(=O)(=O)[C@]3(C(=O)NO)CCC4(CCNCC4)C3)cc2)cc1", "note": "[CM352, 4‐[4‐[[(3R)‐3‐(Hydroxycarbamoyl)‐8‐azaspiro[4.5]decan‐3‐yl]sulfonyl]phenoxy]‐N‐methylbenzamide]", "values": [
      {"measurement": "fraction unbound", "setting": "Plasma protein binding", "value": 0.4},
      {"measurement": "EC50", "setting": "[1]", "value": 0.7, "unit": "nM"},
      {"measurement": "circulating IL‐6 levels", "setting": "interleukin‐6", "value": "significant reduction"},
      {"measurement": "IC50", "setting": "MMP‐12", "value": 7.6, "unit": "nM"},
      {"measurement": "EC50", "setting": "[2]", "value": 200, "unit": "nM"},
      {"measurement": "IC50", "setting": "[3]", "value": "> 10000", "unit": "nM"},
      {"measurement": "PT", "setting": "[4]; 3 H", "value": "62.0±2.6", "unit": "%"},
      {"measurement": "PT", "setting": "[4]; 5 H", "value": "63.7±4.0", "unit": "%"},
      {"measurement": "PT", "setting": "[4]; 24 H", "value": "65.1±7.6", "unit": "%"},
      {"measurement": "PT", "setting": "[4]; Basal", "value": "62.7±5.1", "unit": "%"},
      {"measurement": "cellular fibronectin levels versus control", "setting": "cellular fibronectin", "value": "no differences"},
      {"measurement": "aPTT", "setting": "[5]; 3 H", "value": "21.7 ± 4.5", "unit": "s"},
      {"measurement": "aPTT", "setting": "[5]; 5 H", "value": "21.7 ± 4.0", "unit": "s"},
      {"measurement": "aPTT", "setting": "[5]; 24 H", "value": "21.7 ± 2.5", "unit": "s"},
      {"measurement": "aPTT", "setting": "[5]; Basal", "value": "21.0 ± 4.0", "unit": "s"},
      {"measurement": "neurological deficit (Bederson scale)", "setting": "[6]; 1 mg/kg 3 hours after collagenase, 24 hours (P<0.01) and day 14 (P<0.05) vs control", "value": "better neurological function recovery"},
      {"measurement": "neurological deficit (Bederson scale)", "setting": "[6]; 1 mg/kg iv 1 hour after collagenase, 24 hours, P<0.01 vs control", "value": "better neurological functional recovery"},
      {"measurement": "neurological deficit (Bederson scale)", "setting": "[6]; 1 mg/kg iv 1 hour after collagenase, day 14, P<0.01 vs control", "value": "beneficial effect of CM352 also being very noticeable"},
      {"measurement": "off‐target effect on metalloenzyme panel", "setting": "[7]", "value": "no significant effect"},
      {"measurement": "thrombin‐antithrombin complex levels versus control", "setting": "[8]", "value": "no differences"},
      {"measurement": "Kp", "setting": "[9]; brain, n=3, read-out: Brain/plasma ratio", "value": 0.0193},
      {"measurement": "half-life", "setting": "[9]; plasma, n=3", "value": 1.09, "unit": "h"},
      {"measurement": "Cmax", "setting": "[9]; plasma, n=3, read-out: Cmax (maximal plasma concentration)", "value": 7.8, "unit": "µM"},
      {"measurement": "clearance", "setting": "[9]; plasma, n=3, read-out: Norm. Cl (normalized clearance) (converted)", "value": 7, "unit": "mL/min/kg"},
      {"measurement": "Vd", "setting": "[9]; plasma, n=3, read-out: Norm. Vz (normalized volume of distribution)", "value": 0.66, "unit": "L/kg"},
      {"measurement": "maximal plasma concentration", "setting": "[9]", "value": 7.8, "unit": "µmol/L"},
      {"measurement": "time CM352 remains in blood above 10 nmol/L", "setting": "[9]", "value": 8, "unit": "h"}
    ]}
  ]
}
